Reference: patent publication US10576096B2, “Tumor-selective combination therapy” (priority 2013, dated 2020)
Several values for one entry are separate records, joined by “and”; a condition that tells them apart may be missing. Equal values may be shown once.

Assays:
[1] = system: A549 NSCLC cells or MiaPaCa-2 pancreatic cancer cells; test: Sensitivity enhancement: PARP1 inhibitors combined with β-lapachone or DNQ, relative survival; type: cell-based, human; conditions: 10 = one log kill, 100 = two logs kill; for Sensitivity Enhancement (change in survival) with Deoxynyboquinone (DNQ): nontoxic DNQ (0.02 μM A549, 0.025 μM MiaPaca-2) + optimal dose (15 μM) of PARP1 inhibitor; for Sensitivity Enhancement (change in survival) with β-Lapachone: nontoxic β-lapachone (3 μM A549, 2 μM Mia Paca2) + optimal dose (15 μM) of PARP1 inhibitor
Procedure: Mia PaCa-2 cells were treated for 2 hours with the inhibitors noted in FIG. 30 and then with DNQ+the inhibitors (all at 15 μM) for 2 hours.

BRCA1−/− CAPAN-1 cells = test: AG014699 alone, synthetic lethality control; type: cell-based
[2] = system: A549 and Mia PaCa-2 cells; test: AG014699 alone, lethality in BRCA1 wild-type cancer cells; type: cell-based; conditions: drug alone
Description: FIGS. 33A-D. AG014699 enhances the NQO1-dependent lethality of ß-lapachone in A549 NSCLC cells.
AG014699 enhances the NQO1-dependent lethality of ß-lapachone in A549 NSCLC cells (FIG. 33).

Mia PaCa-2 cells = test: ß-lapachone lethal vs. sublethal doses, 2 h treatment; type: cell-based; conditions: listed as ß-lapachone
Procedure: MeOX, 12 mM; Dicoumarol, NQO1 inhibitor, 50 μM; ß-lapachone doses, indicated or 2 μM. For Mia Paca2 cells, 2-2.5 μM is sublethal, 6 μM is lethal. H2O2 dose was 500 μM, 2 h. All treatments were 2 h in duration. Cells were treated 2× with MeOX, as a 2 h pretreatment and then for 2 h in combination with ß-lap where applicable.
Addition of Methoxyamine (MeOX) prevents ATP recovery responses in ß-lap-treated Mia PaCa-2 cells at lethal and sublethal doses (FIG. 24). Lethal doses of ß-lapachone were 6 and 4 μM, whereas 3.0 and 2.5 μM are sublethal doses of ß-lapachone (ß-lap).

A549 NSCLC cells = test: ß-lapachone nontoxic vs. lethal dose, 2 h; type: cell-based, human
Procedure: FIGS. 46A-B. DNA damage via combinatorial treatment. (A) A549 NSCLC cells were pre-treated with or without Rucaparib (AG014699) and then exposed to a nontoxic dose of ß-lapachone (3 μM) at the concentrations indicated with or without the same PARP1 inhibitor. Cells were also exposed to a lethal dose of ß-lapachone (8 μM). Cells were then analyzed by neutral comet assays and DNA damage graphed in (B).
A459 NSCLC cells were pretreated with 15 μM AG014699 for 2 hours, then exposed to the same concentration of AG014699+various concentrations of DNQ87 for 2 hours as indicated (FIG. 45). Cells were then washed free of drug and relative survival performed as previously described (Huang et al., Cancer Res., 2012). Cells treated in this manner by nontoxic doses of ß-lap show enhanced DNA lesion formation, equivalent to DNA lesions formed by a lethal dose of ß-lap (8 μM, 2 hours) (FIG. 46).

[3] = system: MIA PaCa-2 tumor xenografts; test: Antitumor efficacy in tumor xenografts; type: in vivo, mice; conditions: β-lap-HPβ-CD at 20 or 30 mg/kg, iv
Procedure: (A) Body weight changes of mice bearing orthotopic MIA PaCa-2 tumors. (B) Kaplan-Meier survival for pancreatic antitumor efficacy experiments described in (A). Log-rank analyses were performed comparing survival curves (***p<0.0001) for HPβ-CD vs. β-lap-HPβ-CD at 20 or 30 mg/kg, iv. Results are combined survival data from three similar experiments. (C) Bioluminescent images (BLI) of mice bearing spleen-implanted pancreas cancers before and after treatment with HPβ-CD or β-lap-HPβ-CD (Arq761) at 20 or 30 mg/kg, iv. (D) Quantification of pancreatic tumor burden. BLI (photons per second) were determined before and 12 days post-therapy with HPβ-CD or β-lap-HPβ-CD at 20 or 30 mg/kg, iv. Results are means, +SE (n=5). Student's t tests (***p<0.005) were performed comparing HPβ-CD vs. β-lap-HPβ-CD at 20 or 30 mg/kg, iv. V, Vehicle (HPβ-CD).
Altering BER or SSB repair can enhance NQO1 bioactivatable drug efficacy in a tumor-selective manner. siRNA-mediated knockdown of the Ogg1 glycosylase renders s-lap-treated pancreatic cancer cells resistant to ß-lapachone (FIG. 6), however NQO1 bioactivatable drugs cause SSBs and base lesions in a tumor-specific manner, thus they can be used to make DNA repair inhibitors tumor-selective (FIG. 7). PARP1 inhibitors synergize with NQO1 bioactivatable drugs for enhanced efficacy in NQO1+ cancer cells, such as pancreatic cancer cells (FIG. 8). […]

NQO1 = NQO1 (Homo sapiens, UniProt P15559); conditions: in two minutes; cited from earlier work
Sequence of NQO1 (P15559 whole entry): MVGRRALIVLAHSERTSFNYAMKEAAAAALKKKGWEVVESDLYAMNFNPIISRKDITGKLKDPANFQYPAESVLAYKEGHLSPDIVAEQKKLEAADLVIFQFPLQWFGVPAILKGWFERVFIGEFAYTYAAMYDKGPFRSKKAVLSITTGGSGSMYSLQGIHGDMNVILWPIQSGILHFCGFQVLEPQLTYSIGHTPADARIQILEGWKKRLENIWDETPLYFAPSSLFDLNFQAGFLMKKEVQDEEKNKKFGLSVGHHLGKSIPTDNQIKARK

PARP1 = test: PAR formation (PARP1 inhibition) in cells treated with NQO1 bioactivatable drug plus inhibitor; type: cell-based; conditions: inhibitors at 15 μM
[4] = system: NOD/SCID mice injected with 3LL-Luc cells; test: DNQ derivatives pilot study of maximum tolerated dose (MTD); conditions: 3 NOD/SCID mice
in vivo = conditions: NOD/SCID, mouse, iv
breast cancer cells = test: IB-DNQ (DNQ87) lethality in breast cancer cells; type: cell-based; conditions: NQO1-dependent
Description: It is effective against breast cancer cells in an NQO1-dependent manner, as well as triple-negative breast cancer cells (A-F, for various cell types).
Unlike β-lapachone (ß-lap), efficacy of DNQ87 increases in an NQO1-dependent manner and the therapeutic window is larger (FIG. 14). […] (C) PARP1 hyperactivation caused by DNQ87 exposure measured by PAR-PARP1 formation, highlighted by μ-calpain-mediated p53 cleavage (C) and atypical cleavage of PARP1 to ^˜60 kDa proteolytic fragments during cell death (D). DNQ87 also causes DNA lesions (DNA double strand breaks) in a delayed manner, monitored by gamma-H2AX, phosphorylation of ATM at ser1981, and phosphorylation of DNA-PKcs at site Thr1892 (FIG. 16).

[5] = system: Mia Paca2 pancreatic cancer cells; test: Methoxyamine alone: relative survival and ATP loss; type: cell-based
Procedure: FIGS. 20A-C. Determination of lethal vs. sublethal doses of methoxyamine (MeOX or MX, as indicated); A, MeOX with β-lapachone; B, MeOX; C, MeOX.
(§1) B and C, Methoxyamine (MeOX) is an AP-site modifying chemical that is nontoxic to >100 mM as measured by relative survival and ATP loss. Optimal concentrations in combination with NQO1 bioactivatable drugs are between 6-12 mM. FIG. 21 illustrates Proof of Principle studies. A. Methoxyamine (MeOX) augments ß-lapachone ß-lap)-induced lethality in MiaPaca2 pancreatic cancer cells. B. Addition of MeOX modifies AP sites and therefore decreases signal of AP site formation in ß-lap+MeOX exposed cells. MeOX dose was 12 mM, ß-lap Dose was 6 μM. C,D. XRCC1 is a scaffolding protein that enables base excision repair (BER). Elimination of XRCC1 causes elevated AP sites and DNA single strand breaks, at which PARP1 can bind and become activated/hyperactivated. Knockdown of XRCC1 (C) enhances the lethality of ß-lapachone treatment.

[6] = system: Mia Paca2 pancreatic cancer cells; test: Methoxyamine plus ß-lapachone lethality (colony forming assays); type: cell-based; conditions: nonlethal doses of methoxyamine
Procedure: FIGS. 9A-F. Methoxyamine (MeOX) enhances β-lap-induced NQO1-driven lethality. Mia Paca-2 cells were treated with indicated doses of β-lap+/−MeOX (12 mM), or β-lap alone for 2 hours. Endpoints examined: (A) Colony forming assays show synergy of MeOX+ß-lap; (B) MeOX treatment modifies AP sites induced by β-lap in Mia Paca-2 cells; (C) MeOX enhances β-lap-induced ATP loss; (D) MeOX blocks ATP recovery after sublethal β-lap doses; (E) β-lap+MeOX co-treatment enhances γH2AX foci formation. […] Dicoumarol (DIC, 50 μM, 2 h) blocked synergy.
as §1

| Structure (SMILES) | Sensitivity Enhancement (change in survival) with Deoxynyboquinone (DNQ) [1] | Sensitivity Enhancement (change in survival) with β-Lapachone [1] | MTD at 5 injections, 1x every other day (in vivo) [mg/kg] | also measured |
| --- | --- | --- | --- | --- |
| CN(C)Cc1ccc(-c2nc3cccc4c3n2CCNC4=O)cc1 [AG14361] | 10 | 5 |  |  |
| CNCc1ccc(-c2[nH]c3cc(F)cc4c3c2CCNC4=O)cc1 [AG-014699, Rucaparib] | 100 | 10 |  | lethality of drug alone (BRCA1−/− CAPAN-1 cells): synthetic lethality; response of BRCA1 wild-type cells to the PARP1 inhibitor alone [2]: completely resistant |
| CC1(C)CCC2=C(O1)c1ccccc1C(=O)C2=O [β-Lapachone, β-lapachone] |  |  |  | sublethal dose (Mia PaCa-2 cells): 2 to 2.5 µM and 3.0 µM and 2.5 µM; nontoxic dose (A549 NSCLC cells): 3 µM; lethal dose (A549 NSCLC cells; 2 hours): 8 µM; antitumor efficacy [3]: significant antitumor efficacy; superoxide generated per mole of compound (NQO1): ~120 mol |
| O=C(c1cc(Cc2n[nH]c(=O)c3ccccc23)ccc1F)N1CCN(C(=O)C2CC2)CC1 [AZD2281, Olaparib] | 20 | 10 |  |  |
| NC(=O)c1ccc(I)c([N+](=O)[O-])c1 [BSI-201, Iniparib] | 4 | 3 |  | inhibition of PAR formation (PARP1): not an efficacious PARP1 inhibitor |
| CCc1cc(=O)n(C)c2c1C(=O)c1c(C)cc(=O)[nH]c1C2=O [Compound 107] |  |  | 8 | Dead mice (5 IV.) ([4]; 10 mg/kg): 1 |
| CCCn1c2c(c(C)cc1=O)C(=O)c1c(C)cc(=O)[nH]c1C2=O [Compound 10-41] |  |  | 7 | Dead mice (5 IV.) ([4]; 15 mg/kg): 3 |
| Cc1cc(=O)[nH]c2c1C(=O)c1c(C)cc(=O)n(CC(C)C)c1C2=O [Compound 87] |  |  | ~16 | Dead mice (5 IV.) ([4]; 14 mg/kg): 0; effective doses relative to ß-lapachone and DNQ (breast cancer cells): works at much lower doses versus ß-lapachone and at doses equivalent to the parental DNQ compound |
| O=c1[nH]cnc2c1ncn2[C@@H]1O[C@H](CO)[C@@H](O)[C@H]1O [INO-1001] | 10 | 7 |  |  |
| C[C@]1(c2nc3c(C(N)=O)cccc3[nH]2)CCCN1 [ABT-888, Veliparib] | 15 | 10 |  |  |
| Cc1cc(=O)[nH]c2c1C(=O)c1c(C)cc(=O)n(CCC(C)(C)C)c1C2=O [Compound 9-251] |  |  | 20 | Dead mice (5 IV.) ([4]; 20 mg/kg): 0 |
| CON [Methoxyamine, methoxyamine] |  |  |  | optimal concentration in combination with NQO1 bioactivatable drugs [5]: 6 to 12 mM; nontoxic concentration ([5]; measured by relative survival and ATP loss): > 100 mM; lethality in combination with ß-lapachone [6]: synergistic lethality |
